How the values were obtained:
HepG2 cells = test: Confocal microscopy: lipid droplets in oleate induced HepG2 cells; format: cell-based; parameters: key to Reduction in Lipid Droplets: + = slight or in insignificant; ++ = Moderate; +++ and ++++ = active; +++ and ++++ = active; +++++ = very active; conditions: for Reduction in Lipid Droplets: oleate induced HepG2 cells, score; for Number of lipid droplets: HepG2 cells, 250 μM oleate induction
Description: (§1) To select the compounds capable of inhibiting the ubiquitination of ATGL by COP1 by targeting the VP motif, confocal microscopy was performed with the provided molecules. If the compound was effective in inhibiting the interaction, there would be a reduction in the number of fat droplets in the cells after treatment. […] With this rationale in mind, HepG2 cells were induced to accumulate lipid droplets after treatment with 250 µM of oleate and 10 μM of the specific compounds were added. The potential of the compounds to bring about a reduction in the number of fat droplets was then checked by comparison with oleate induced cells by counting number of droplets of approximately 20 cells from each treatment and calculating the average number of lipid droplets of each cell. The selected compounds were then subjected to dose dependent treatments and the ones which could maintain its potency to reduce fat droplets at lower doses were then selected for western blot analysis. The compound which could reduce the number of fat droplets in the cells are expected to raise the levels of ATGL since they are likely to deter COP1 from ubiquitinating ATGL. This increase will be visible only in the protein level and gene expression is likely to remain unchanged since ubiquitination is a […] modification. Thus, western blot was performed to check ATGL levels in the cells with the selected molecules.
HepG2 cells were plated in confocal dishes (SPL, Genetix Biotech Asia Pvt. Ltd.). The cells were allowed to adhere and divide for 16 hours. 10 μM for initial screening and 10 nM, 20 nM, 50 nM, 100 nM, 200 nM, 500 nM, 1 μM and 5 μM for dose dependent assays of the compounds 9 and 107 were dissolved in DMSO and added to the cells. 250 μM of oleate was used for induction. BSA (Sigma Aldrich) was used as a negative control. Post 24 hours of treatment, media was decanted from the cells and washed with 1×PBS solution to remove any remnant. 200 μl of staining solution containing 200 ng/ml BODIPY (Invitrogen) and 25 µg/ml HOECKST342 (Invitrogen) were added to the cells and incubated at 37° C. for 30 minutes under dark conditions. Cells were washed 3 times with 1×PBS to remove excess stain. FLUOVIEW FV10i (Olympus) was used to visualise the cells.

ATGL = test: Western blot of ATGL level in HepG2 cells; format: cell-based; parameters: key to Increase in ATGL level: + = slight or in insignificant; ++ = Moderate; +++ and ++++ = active; +++ and ++++ = active; +++++ = very active; conditions: western blot; for Increase in ATGL level: HepG2 cells, score; for ATGL level in HepG2 cells: 24 hours, 10 μM screening or 50 nM-5 μM dose dependent
Description: as §1
HepG2 cells were treated with the compounds 9, 10, 11, 17, 18, 23, 24, 115, 123, 127, 139,107, 171, 179, 73, 187, 211, 215, 219, 223, 232, 238, 241, 244, 258, 299, 308, and 333a, (10 μM for initial screening and 50 nM, 100 nM, 200 nM, 500 nM, 1 μM and 5 μM for dose dependent assays) for 24 hours. After removing media from the cells, the wells were washed with 1×PBS twice to remove any remnant media. Cells were then lysed in lysis buffer containing 50 mM Tris-HCl (pH 7.4), 100 mM NaCl, 1 mM EDTA, 1 mM EGTA, 1% Triton X-100 and protease inhibitor cocktail (Millipore, Billierica, MA, USA). Following centrifugation at 20,000 g for 20 minutes, the protein solution was extracted from the cells. Protein was estimated using Bradford assay. Bradford's reagent (BioRad) was diluted in 1:4 ratio in double distilled water. 2 μl of protein sample was added to 100 μl of the reagent and absorbance was measured at 595 nm. […] of protein was diluted in lysis buffer. 1× loading buffer diluted from 5× stock containing 250 mM Tris-HCl (pH 6.8), 10% SDS, 50% glycerol, 0.1% bromophenol Blue and 10% β-mercaptoethanol was added. The protein samples were then heated at 95° C. for 10 minutes, cooled and centrifuged at 12,000 g for 2 minutes prior to loading.
For western blotting, the proteins were resolved in 10% SDS PAGE (discontinuous buffer system). 1× running buffer containing SDS, Tris Base and Glycine was used to run the gel at 80V for approximately 2 hours. Transfer was done using PVDF membrane (Millipore) having pore size of 0.45 μm. 1× transfer buffer containing Tris-Base, Glycine and 20% methanol was used for wet transfer. Transfer was done at 90V for 3 hours. Following transfer, the PVDF membrane containing the proteins were washed in 1×PBST comprising of 1×PBS and 1% Tween 20 (Sigma Aldrich). The membrane was then incubated for 1 hour at room temperature in 5% skim milk powder to block the non-specific sites. Following multiple washes with 1×PBST to wash away any remaining blocking buffer, the required primary antibody (COP1 [Bethyl Laboraties], ATGL [Cell Signalling Technology] or Actin[Cell Signalling Technology]) prepared with 1×PBST, 1% Bovine Serum Albumin and 0.04% Sodium Azide was added to the membrane and incubated overnight at 4° C. The next day, the membrane was again washed multiple times with 1×PBST to remove any unbound primary antibody. The membrane was then incubated with goat anti-rabbit secondary antibody (Genei) for 1 hour at room temperature and washed again for multiple times with 1×PBST. […]

For `COCCn1cnc2ccc(NC(=O)Nc3ccc(OC)cc3)cc2c1=O` [Compound 40, 1-(3-(2-methoxyethyl)-4-oxo-3,4-dihydroquinazolin-6-yl)-3-(4-methoxyphenyl)urea], the “Reduction in Lipid Droplets” value (HepG2 cells) was “++” and the “Increase in ATGL level” value (ATGL) was “++++”.

With `COCCn1cnc2ccc(NC(=O)Nc3ccccc3OC)cc2c1=O` [Compound 41, 1-(3-(2-methoxyethyl)-4-oxo-3,4-dihydroquinazolin-6-yl)-3-(2-methoxyphenyl)urea] the “Reduction in Lipid Droplets” value (HepG2 cells) was “++” and the “Increase in ATGL level” value (ATGL) was “++++”.

In the case of `CCOC(=O)c1cccc(NC(=O)Nc2ccc3ncn(CCOC)c(=O)c3c2)c1` [Compound 42, ethyl 3-(3-(3-(2-methoxyethyl)-4-oxo-3,4-dihydroquinazolin-6-yl)ureido)benzoate], the “Reduction in Lipid Droplets” value (HepG2 cells) is reported as “+” and the “Increase in ATGL level” value (ATGL) is reported as “+”.

`CCOC(=O)Cn1cnc2ccc(NC(=O)Nc3ccc(F)c(Cl)c3)cc2c1=O` [Compound 83, ethyl 2-(6-(3-(3-chloro-4-fluorophenyl)ureido)-4-oxoquinazolin-3 (4H)-yl)acetate] was tested, and the “Reduction in Lipid Droplets” value (HepG2 cells) was “+” and the “Increase in ATGL level” value (ATGL) was “+”.

In the case of `CCOC(=O)Cn1cnc2ccc(NC(=O)Nc3ccc(OC(F)(F)F)cc3)cc2c1=O` [Compound 84, ethyl 2-(4-oxo-6-(3-(4-(trifluoromethoxy)phenyl)ureido)quinazolin-3 (4H)-yl)acetate], the “Reduction in Lipid Droplets” value (HepG2 cells) is reported as “+++” and the “Increase in ATGL level” value (ATGL) is reported as “++”.

In the case of `CCOC(=O)Cn1cnc2ccc(NC(=O)Nc3cccc(C(C)=O)c3)cc2c1=O` [Compound 85, ethyl 2-(6-(3-(3-acetylphenyl)ureido)-4-oxoquinazolin-3 (4H)-yl)acetate], the “Reduction in Lipid Droplets” value (HepG2 cells) is reported as “+” and the “Increase in ATGL level” value (ATGL) is reported as “+”.

`COCCCn1cnc2ccc(NC(=O)Nc3cccc(C(C)=O)c3)cc2c1=O` [Compound 89, 1-(3-acetylphenyl)-3-(3-(3-methoxypropyl)-4-oxo-3,4-dihydroquinazolin-6-yl)urea] was tested, and the “Number of lipid droplets” value (HepG2 cells) was “reduction in lipid droplets”, the “Reduction in Lipid Droplets” value (HepG2 cells) was “+++” and the “Increase in ATGL level” value (ATGL) was “+”. The “ATGL level in HepG2 cells” value (ATGL) was “some sort of increase in ATGL level”.

`CCOCCn1cnc2ccc(NC(=O)Nc3cccc(C(C)=O)c3)cc2c1=O` [Compound 93, 1-(3-acetylphenyl)-3-(3-(2-ethoxyethyl)-4-oxo-3,4-dihydroquinazolin-6-yl)urea] was tested, and the “Number of lipid droplets” value (HepG2 cells) was “reduction in lipid droplets”, the “Reduction in Lipid Droplets” value (HepG2 cells) was “+++” and the “Increase in ATGL level” value (ATGL) was “++++”. For the same compound, the “ATGL level in HepG2 cells” value (ATGL) was “some sort of increase in ATGL level”.

For `CCOCCn1cnc2ccc(NC(=O)Nc3ccc(C(C)=O)cc3)cc2c1=O` [Compound 94, 1-(4-acetylphenyl)-3-(3-(2-ethoxyethyl)-4-oxo-3,4-dihydroquinazolin-6-yl)urea], the “Reduction in Lipid Droplets” value (HepG2 cells) was “++” and the “Increase in ATGL level” value (ATGL) was “+”.

In the case of `COc1cccc(-n2cnc3ccc(NC(=O)Nc4cccc(C(C)=O)c4)cc3c2=O)c1` [Compound 103, 1-(3-acetylphenyl)-3-(3-(3-methoxyphenyl)-4-oxo-3,4-dihydroquinazolin-6-yl)urea], the “Number of lipid droplets” value (HepG2 cells) is reported as “reduction in lipid droplets”, the “Reduction in Lipid Droplets” value (HepG2 cells) is reported as “+” and the “Increase in ATGL level” value (ATGL) is reported as “+”. For the same compound, the “ATGL level in HepG2 cells” value (ATGL) was “some sort of increase in ATGL level”.

With `COCCn1c(C(C)C)nc2ccc(NC(=O)Nc3cccc(C(C)=O)c3)cc2c1=O` [Compound 111, 1-(3-acetylphenyl)-3-(2-isopropyl-3-(2-methoxyethyl)-4-oxo-3,4-dihydroquinazolin-6-yl)urea] the “Reduction in Lipid Droplets” value (HepG2 cells) was “++” and the “Increase in ATGL level” value (ATGL) was “+++”.

`COCCn1c(-c2ccc(F)cc2)nc2ccc(NC(=O)Nc3cccc(C(C)=O)c3)cc2c1=O` [Compound 115, 1-(3-acetylphenyl)-3-(2-(4-fluorophenyl)-3-(2-methoxyethyl)-4-oxo-3,4-dihydroquinazolin-6-yl)urea] was tested, and the “Reduction in Lipid Droplets” value (HepG2 cells) was “+” and the “Increase in ATGL level” value (ATGL) was “+”.

With `COCCn1c(-c2ccc(OC)cc2)nc2ccc(NC(=O)Nc3cccc(C(C)=O)c3)cc2c1=O` [Compound 119, 1-(3-acetylphenyl)-3-(3-(2-methoxyethyl)-2-(4-methoxyphenyl)-4-oxo-3,4-dihydroquinazolin-6-yl)urea] the “Reduction in Lipid Droplets” value (HepG2 cells) was “+” and the “Increase in ATGL level” value (ATGL) was “+”.

In the case of `CC(=O)c1cccc(NC(=O)Nc2ccc3ncn(CCN4CCOCC4)c(=O)c3c2)c1` [Compound 135, 1-(3-acetylphenyl)-3-(3-(2-morpholinoethyl)-4-oxo-3,4-dihydroquinazolin-6-yl)urea], the “Number of lipid droplets” value (HepG2 cells) is reported as “reduction in lipid droplets”, the “Reduction in Lipid Droplets” value (HepG2 cells) is reported as “++” and the “Increase in ATGL level” value (ATGL) is reported as “+++”. The “ATGL level in HepG2 cells” value (ATGL) was “some sort of increase in ATGL level”.

With `CC(=O)c1cccc(NC(=O)Nc2ccc3ncn(CCN(C)C)c(=O)c3c2)c1` [Compound 143, 1-(3-acetylphenyl)-3-(3-(2-(dimethylamino)ethyl)-4-oxo-3,4-dihydroquinazolin-6-yl)urea] the “Number of lipid droplets” value (HepG2 cells) was “reduction in lipid droplets”, the “Reduction in Lipid Droplets” value (HepG2 cells) was “+++” and the “Increase in ATGL level” value (ATGL) was “++++”. The “ATGL level in HepG2 cells” value (ATGL) was “some sort of increase in ATGL level”.

In the case of `CC(=O)c1cccc(NC(=O)Nc2ccc3ncn(CCN4CCCCC4)c(=O)c3c2)c1` [Compound 147, 1-(3-acetylphenyl)-3-(4-oxo-3-(2-(piperidin-1-yl)ethyl)-3,4-dihydroquinazolin-6-yl)urea], the “Number of lipid droplets” value (HepG2 cells) is reported as “reduction in lipid droplets”, the “Reduction in Lipid Droplets” value (HepG2 cells) is reported as “++” and the “Increase in ATGL level” value (ATGL) is reported as “+++”. For the same compound, the “ATGL level in HepG2 cells” value (ATGL) was “some sort of increase in ATGL level”.

`CC(=O)c1cccc(NC(=O)Nc2ccc3ncn(-c4cccnc4)c(=O)c3c2)c1` [Compound 155, 1-(3-acetylphenyl)-3-(4-oxo-3-(pyridin-3-yl)-3,4-dihydroquinazolin-6-yl)urea] was tested, and the “Number of lipid droplets” value (HepG2 cells) was “reduction in lipid droplets”, the “Reduction in Lipid Droplets” value (HepG2 cells) was “+++” and the “Increase in ATGL level” value (ATGL) was “++”. The “ATGL level in HepG2 cells” value (ATGL) was “some sort of increase in ATGL level”.

With `CC(=O)c1cccc(NC(=O)Nc2ccc3ncn(-c4ccccn4)c(=O)c3c2)c1` [Compound 159, 1-(3-acetylphenyl)-3-(4-oxo-3-(pyridin-2-yl)-3,4-dihydroquinazolin-6-yl)urea] the “Number of lipid droplets” value (HepG2 cells) was “reduction in lipid droplets”, the “Increase in ATGL level” value (ATGL) was “+” and the “ATGL level in HepG2 cells” value (ATGL) was “some sort of increase in ATGL level”.

`CC(=O)c1cccc(NC(=O)Nc2ccc3ncn(C4CCN(C)CC4)c(=O)c3c2)c1` [Compound 163, 1-(3-acetylphenyl)-3-(3-(1-methylpiperidin-4-yl)-4-oxo-3,4-dihydroquinazolin-6-yl)urea] was tested, and the “Number of lipid droplets” value (HepG2 cells) was “reduction in lipid droplets”, the “Reduction in Lipid Droplets” value (HepG2 cells) was “++” and the “Increase in ATGL level” value (ATGL) was “+”. The “ATGL level in HepG2 cells” value (ATGL) was “some sort of increase in ATGL level”.

From patent US12528777B2, “Quinazolinones derivatives for treatment of non-alcoholic fatty liver disease, preparation and use thereof” (Council of Scientific and Industrial Research, priority 2020, dated 2026)
